For 29 compounds, EC50 results are on record in patent US11078170B2 (Assembly Biosciences, Inc., priority 2017, dated 2021).

pEC50: −log10 of the molar value.

This test has as its system HBV viral production from HepAD38 cells. The experiment in a line: Activity of test compounds on viral production from HepAD38 cells (viral load by qPCR of HBV core sequence in supernatant). The note with it: Hepatitis B virus, 120 h, 5 days incubation, HBV DNA in supernatant by qPCR, top concentration 10 μM, read-out: Viral Load EC50 Activity range. It is filed as cell-based. The essentials: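 HepAD38 cells, 50,000/well in tetracycline-free 2% FBS medium, treated 5 days at 37° C. with compound from 10 μM top concentration. HBV DNA in supernatant quantified by TaqMan qPCR of core sequence against DNA standards, relative to DMSO wells; CellTiter-Glo viability read in parallel. EC50/CC50 from four-parameter logistic fit.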
By pEC50 is commonly meant −log10 of the EC50, conventionally taken in molar units. Consider `O=C(Nc1ccc(F)c(Cl)c1)[C@H]1C[C@@H](c2nccs2)NS(=O)(=O)N1CCO` [HBV-CSU-097-ISO-I, Cis-N-(3-Chloro-4-fluorophenyl)-2-(2-hydroxyethyl)-5-(thiazol-2-yl)-1,2,6-thiadiazinane-3-carboxamide 1,1-dioxide], for which the pEC50 was under 5.30.
`O=C(Nc1ccc(F)c(Cl)c1)[C@H]1C[C@@H](c2nccs2)NS(=O)(=O)N1CCCO` [HBV-CSU-078-ISO-II, Cis-N-(3-Chloro-4-fluorophenyl)-2-(3-hydroxypropyl)-5-(thiazol-2-yl)-1,2,6-thiadiazinane-3-carboxamide 1,1-dioxide]: the pEC50 is under 5.30.
For the compound `[2H]C([2H])([2H])N1C(C(=O)Nc2ccc(F)c(Cl)c2)CC(c2ncc(Br)s2)NS1(=O)=O` (centres unmarked) [HBV-CSU-336, 5-(5-Bromothiazol-2-yl)-N-(3-chloro-4-fluorophenyl)-2-(methyl-d3)-1,2,6-thiadiazinane-3-carboxamide 1,1-dioxide], the pEC50 was over 6.00.
`NC(=O)CN1C(C(=O)Nc2ccc(F)c(Cl)c2)CC(c2nccs2)NS1(=O)=O` (centres unmarked): the pEC50 was 5.30 to 6.00.
For `CN1[C@@H](C(=O)Nc2ccc(F)c(Cl)c2)C[C@@H](c2ccon2)NS1(=O)=O` [HBV-CSU-055-ISO-II, Cis-N-(3-chloro-4-fluorophenyl)-5-(isoxazol-3-yl)-2-methyl-1,2,6-thiadiazinane-3-carboxamide 1,1-dioxide], the pEC50 was under 5.30.
Next, `CN1[C@@H](C(=O)Nc2ccc(F)c(Cl)c2)C[C@@H](c2ncc(-c3cncn3C)s2)NS1(=O)=O` [HBV-CSU-277-ISO-II, Cis-N-(3-Chloro-4-fluorophenyl)-2-methyl-5-(5-(1-methyl-1H-imidazol-5-yl)thiazol-2-yl)-1,2,6-thiadiazinane-3-carboxamide 1,1-dioxide]: under 5.30; `CN1[C@H](C(=O)Nc2ccc(F)c(Cl)c2)C[C@H](c2ccsn2)NS1(=O)=O` [HBV-CSU-056-ISO-I, Cis-N-(3-chloro-4-fluorophenyl)-5-(isothiazol-3-yl)-2-methyl-1,2,6-thiadiazinane-3-carboxamide 1,1-dioxide]: over 6.00.
On to `O=C(Nc1ccc(F)c(Cl)c1)[C@@H]1C[C@H](c2nccs2)NS(=O)(=O)N1CCCO` [HBV-CSU-078-ISO-I, Cis-N-(3-Chloro-4-fluorophenyl)-2-(3-hydroxypropyl)-5-(thiazol-2-yl)-1,2,6-thiadiazinane-3-carboxamide 1,1-dioxide], for which the pEC50 was over 6.00.
With `N#CCN1[C@H](C(=O)Nc2ccc(F)c(Cl)c2)C[C@H](c2nccs2)NS1(=O)=O` [HBV-CSU-093-ISO-I, Cis-N-(3-Chloro-4-fluorophenyl)-2-(cyanomethyl)-5-(thiazol-2-yl)-1,2,6-thiadiazinane-3-carboxamide 1,1-dioxide], the pEC50 was 5.30 to 6.00.
With `Cc1nn(C)c(C)c1-c1csc(C2CC(C(=O)Nc3ccc(F)c(Cl)c3)N(C)S(=O)(=O)N2)c1` (racemic) [HBV-CSU-317, Cis-N-(3-chloro-4-fluorophenyl)-2-methyl-5-(4-(1,3,5-trimethyl-1H-pyrazol-4-yl)thiophen-2-yl)-1,2,6-thiadiazinane-3-carboxamide 1,1-dioxide], the pEC50 was over 6.00.
Consider `CN1[C@H](C(=O)Nc2ccc(F)c(Cl)c2)C[C@H](c2cc(-c3cccnc3)cs2)NS1(=O)=O` [HBV-CSU-167-ISO-I, Cis-N-(3-chloro-4-fluorophenyl)-2-methyl-5-(4-(pyridin-3-yl)thiophen-2-yl)-1,2,6-thiadiazinane-3-carboxamide 1,1-dioxide], for which the pEC50 was over 6.00.
With `CN1[C@@H](C(=O)Nc2ccc(F)c(Cl)c2)C[C@@H](c2ncc(-c3ccc(NS(C)(=O)=O)cc3)s2)NS1(=O)=O` [HBV-CSU-179-ISO-II, Cis-N-(3-Chloro-4-fluorophenyl)-2-methyl-5-(5-(4-(methylsulfonamido)phenyl)thiazol-2-yl)-1,2,6-thiadiazinane-3-carboxamide 1,1-dioxide], the pEC50 is 5.30 to 6.00.
Next, `CN1[C@@H](C(=O)Nc2ccc(F)c(Cl)c2)C[C@@H](c2ccc(-c3ccc(C(F)(F)F)nc3)s2)NS1(=O)=O` [HBV-CSU-158-ISO-II, Cis-N-(3-chloro-4-fluorophenyl)-2-methyl-5-(5-(6-(trifluoromethyl)pyridin-3-yl)thiophen-2-yl)-1,2,6-thiadiazinane-3-carboxamide 1,1-dioxide]: under 5.30; `CCN(CC)CCCN1[C@@H](C(=O)Nc2ccc(F)c(Cl)c2)C[C@@H](c2nccs2)NS1(=O)=O` [HBV-CSU-101-ISO-I, Cis-N-(3-Chloro-4-fluorophenyl)-2-(3-(diethylamino)propyl)-5-(thiazol-2-yl)-1,2,6-thiadiazinane-3-carboxamide 1,1-dioxide]: under 5.30; `CN1[C@H](C(=O)Nc2ccc(F)c(Cl)c2)C[C@H](c2cc(Cc3ccccc3)cs2)NS1(=O)=O` [HBV-CSU-149-ISO-I, Cis-(4-benzylthiophen-2-yl)-N-(3-chloro-4-fluorophenyl)-2-methyl-1,2,6-thiadiazinane-3-carboxamide 1,1-dioxide]: over 6.00.
Consider `CN1[C@@H](C(=O)Nc2ccc(F)c(Cl)c2)C[C@@H](c2ccc(Br)s2)NS1(=O)=O` [HBV-CSU-114-ISO-II, 5-(5-Bromothiophen-2-yl)-N-(3-chloro-4-fluorophenyl)-2-methyl-1,2,6-thiadiazinane-3-carboxamide 1,1-dioxide], for which the pEC50 was under 5.30.
Take `CN1[C@H](C(=O)Nc2ccc(F)c(Cl)c2)C[C@H](c2cc(Cl)c(-c3cnn(C)c3)s2)NS1(=O)=O` [HBV-CSU-302-ISO-I, Cis-N-(3-Chloro-4-fluorophenyl)-5-(4-chloro-5-(1-methyl-1H-pyrazol-4-yl)thiophen-2-yl)-2-methyl-1,2,6-thiadiazinane-3-carboxamide 1,1-dioxide]: the pEC50 is over 6.00.
Take `COc1ccc(-c2cnc([C@H]3C[C@@H](C(=O)Nc4ccc(F)c(Cl)c4)N(C)S(=O)(=O)N3)s2)cc1` [HBV-CSU-250-ISO-I, Cis-N-(3-Chloro-4-fluorophenyl)-5-(5-(4-methoxyphenyl)thiazol-2-yl)-2-methyl-1,2,6-thiadiazinane-3-carboxamide 1,1-dioxide]: the pEC50 was over 6.00.
Consider `CN1C(C(=O)Nc2ccc(F)c(Cl)c2)CC(c2cc(-c3ccnn3C)cs2)NS1(=O)=O` (racemic) [HBV-CSU-289, Cis-N-(3-chloro-4-fluorophenyl)-2-methyl-5-(4-(1-methyl-1H-pyrazol-5-yl)thiophen-2-yl)-1,2,6-thiadiazinane-3-carboxamide 1,1-dioxide], for which the pEC50 is over 6.00.
In the case of `CN1[C@@H](C(=O)Nc2ccc(F)c(Cl)c2)C[C@@H](c2cc(-c3ccn(C)n3)cs2)NS1(=O)=O` [HBV-CSU-288-ISO-II, Cis-N-(3-Chloro-4-fluorophenyl)-2-methyl-5-(4-(1-methyl-1H-pyrazol-3-yl)thiophen-2-yl)-1,2,6-thiadiazinane-3-carboxamide 1,1-dioxide], the pEC50 was 5.30 to 6.00.
On to `CN(C)CCOc1ccc(C2CC(C(=O)Nc3ccc(F)c(Cl)c3)N(C)S(=O)(=O)N2)s1` (racemic) [HBV-CSU-188, Cis-N-(3-chloro-4-fluorophenyl)-5-(5-(2-(dimethylamino)ethoxy)thiophen-2-yl)-2-methyl-1,2,6-thiadiazinane-3-carboxamide 1,1-dioxide], for which the pEC50 is over 6.00.
On to `CN1[C@H](C(=O)Nc2ccc(F)c(Cl)c2)C[C@H](c2cc(-c3ccc(C(F)(F)F)nc3)cs2)NS1(=O)=O` [HBV-CSU-166-ISO-I, Cis-N-(3-chloro-4-fluorophenyl)-2-methyl-5-(4-(6-(trifluoromethyl)pyridin-3-yl)thiophen-2-yl)-1,2,6-thiadiazinane-3-carboxamide 1,1-dioxide], for which the pEC50 was over 6.00.
`[2H]C([2H])([2H])N1[C@H](C(=O)Nc2ccc(F)c(Cl)c2)C[C@H](c2ncc(-c3cn(C([2H])([2H])[2H])cn3)s2)NS1(=O)=O` [HBV-CSU-337-ISO-I, Cis-N-(3-Chloro-4-fluorophenyl)-2-(methyl-d3)-5-(5-(1-(methyl-d3)-1H-imidazol-4-yl)thiazol-2-yl)-1,2,6-thiadiazinane-3-carboxamide 1,1-dioxide]: the pEC50 was over 6.00.
Next, `Cc1csc([C@@H]2C[C@H](C(=O)Nc3ccc(F)c(Cl)c3)N(C)S(=O)(=O)N2)c1` [HBV-CSU-147-ISO-II, Cis-N-(3-chloro-4-fluorophenyl)-2-methyl-5-(4-methylthiophen-2-yl)-1,2,6-thiadiazinane-3-carboxamide 1,1-dioxide]: under 5.30.
Regarding `CN1[C@@H](C(=O)Nc2ccc(F)c(Cl)c2)C[C@@H](c2cc(Cl)c(-c3cnn(C)c3)s2)NS1(=O)=O` [HBV-CSU-302-ISO-II, Cis-N-(3-Chloro-4-fluorophenyl)-5-(4-chloro-5-(1-methyl-1H-pyrazol-4-yl)thiophen-2-yl)-2-methyl-1,2,6-thiadiazinane-3-carboxamide 1,1-dioxide], the pEC50 is under 5.30.
Next, `CN1C(C(=O)Nc2ccc(F)c(Br)c2)CC(c2ccc(Br)s2)NS1(=O)=O` (stereo not drawn) [HBV-CSU-257, Cis-N-(3-Bromo-4-fluorophenyl)-5-(5-bromothiophen-2-yl)-2-methyl-1,2,6-thiadiazinane-3-carboxamide 1,1-dioxide]: over 6.00; `Cc1cnc(C2CC(C(=O)Nc3ccc(F)c(Cl)c3)N(C)S(=O)(=O)N2)s1` (centres unmarked): over 6.00.
Regarding `CN1[C@H](C(=O)Nc2ccc(F)c(C(F)(F)F)c2)C[C@H](c2cccs2)NS1(=O)=O` [HBV-CSU-046-ISO-I, Cis-N-(4-Fluoro-3-(trifluoromethyl)phenyl)-2-methyl-5-(thiophen-2-yl)-1,2,6-thiadiazinane-3-carboxamide 1,1-dioxide], the pEC50 was over 6.00.
As for `CN1[C@H](C(=O)Nc2ccc(F)c(Cl)c2)C[C@H](c2ccccc2)NS1(=O)=O` [HBV-CSU-113-ISO-I, Cis-N-(3-chloro-4-fluorophenyl)-2-methyl-5-phenyl-1,2,6-thiadiazinane-3-carboxamide 1,1-dioxide], the pEC50 is over 6.00.
